How the values were obtained:
Experiment in all cases: F-neo fluorescence displacement
[1] = test system: hsa-miR 142 (RNA, miRNA) CAUAAAGUAGAAAGCACUACUUU/AGUAGUGCUUUCUACUUUAUGUU; conditions: 25 mM KCl; 10 mM sodium phosphate, 0.05 mM EDTA, pH 6.5; tracer 100 nM F-neo, 100 nM miRNA; per site
[2] = test system: hsa-miR 335 (RNA, miRNA) UCAAGAGCAAUAACGAAAAAUGUUU/ACAUUUUUCGUUAUUGCUCUUGAUU; conditions: 25 mM KCl; 10 mM sodium phosphate, 0.05 mM EDTA, pH 6.5; tracer 100 nM F-neo, 100 nM miRNA; per site
[3] = test system: hsa-miR 504 (RNA, miRNA) AGACCCUGGUCUGCACUCUAUCUU/GAUAGAGUGCAGACCAGGGUCUUU; conditions: 25 mM KCl; 10 mM sodium phosphate, 0.05 mM EDTA, pH 6.5; tracer 100 nM F-neo, 50 nM miRNA; per site
[4] = test system: pre-hsa-miR 504 (RNA, miRNA) GCUGCUGUUGGGAGACCCUGGUCUGCACUCUAUCUGUAUUCUUACUGAAGGGAGUGCAGGGCAGGGUUUCCCAUACAGAGGGC; conditions: 25 mM KCl; 10 mM sodium phosphate, 0.05 mM EDTA, pH 6.5; tracer 100 nM F-neo, 16.7 nM pre-miRNA; per site

IC50 [1]: 95.7 ± 5.6 nM | IC50 [2]: 117.4 ± 8.1 nM | IC50 [3]: 70.3 ± 1.6 nM | IC50 [4]: 56.2 ± 2.3 nM
SMILES: NC[C@@H]1O[C@H](O[C@H]2[C@@H](O)[C@H](O[C@@H]3[C@@H](O)[C@H](N)C[C@H](N)[C@H]3O[C@H]3O[C@H](CN)[C@@H](O)[C@H](O)[C@H]3N)O[C@@H]2CO)[C@H](N)[C@@H](O)[C@@H]1O
